In this experiment the test system is 966289-007-R4-J1-PDC complex spheroid viability. The experiment is described as follows: Anticancer human tumor 966289-007-R4-J1-PDC patient-derived pancreatic adenocarcinoma cell line growth inhibition [RAS]. Particulars: for viability, T/C: stronger effect = lower value. The source says: RAS pathway inhibitors in Combinations in Complex Spheroids
A high-throughput screen of multi-cell type tumor spheroids was designed to identify active combinations of RAS pathway inhibitors and targeted small molecules. Complex spheroids include a stromal component modeled by human endothelial cells (HUVEC) and fibroblasts modeled by human mesenchymal stem cells (MSCs). The concentration ranges selected for each drug and investigational agent were based upon clinically achievable concentrations if the clinical Cmax of the agent was known.
Compounds. The drugs and investigational agents: abemaciclib (NSC768073), cobimetinib (NSC768068), divarasib (GDC6063, NSC841802), docetaxel (NSC628503), GDC-1971 (RLY-1971, NSC841576), gemcitabine (NSC613327), inavolisib (NSC800729), ipatasertib (NSC767898), KB-0742 (NSC834161), MRTX-1133 (NSC836407), osimertinib (NSC779217), RMC-4630 (NSC839698), RMC-6236 (NSC851965), RMC-6291 (NSC852671), Ro-3306 (NSC812927), sapanisertib (NSC764658), SN-38 (NSC673596), staurosporine (NSC755774), SY5609 (NSC837396), and tovorafenib (DAY101, NSC766906), were obtained from the National Cancer Institute (NCI) Developmental Therapeutics Program Chemical Repository. The FDA-approved anticancer drug set is available from the NCI Developmental Therapeutics Program. […] The stock solutions were prepared in dimethyl sulfoxide (DMSO, Sigma-Aldrich, St. Louis, MO, cat. D2650) at 800-fold the tested concentration and stored at -70 degrees C prior to their use. All drugs and investigational agents were tested over a range starting from a high concentration at or near the clinical Cmax and decreasing in half-log increments. If the clinical Cmax for an agent had not been determined, the highest concentration tested was 10 microM.
Cell Culture. All cells were maintained in an incubator at 37 degrees C and 5% CO2 with 95% humidity. The PDC lines were cultured according to standard operating procedures established by the NCI PDMR. All PDCs were thawed and cultured in Matrigel-coated flasks prepared with a working solution of 1X Ham's F-12 nutrient mix, without supplementation (Invitrogen, Waltham, MA, cat. 11765054), 100 U/mL penicillin-streptomycin (Invitrogen, cat. 15140122), and 2.5% Matrigel (Corning Inc., Corning, NY, cat. 354248) for the first three passages. The 362531-283-R-J2-PDC and 782815-120-R-J1-PDC lines were cultured in 6C/Colon 1B media, which includes advanced DMEM/F-12 (Thermo Fisher Scientific, cat. 12634028), 10 mM HEPES (Thermo Fisher Scientific, cat. 15630080), 1X GlutaMAX supplement (Thermo Fisher Scientific, cat. 35050061), 0.1 mg/mL primocin (InvivoGen, San Diego, CA, cat. ant-pm-2), 10% defined fetal bovine serum, heat inactivated (HyClone Laboratories Inc., Logan, UT, cat. SH30070.03HI), 50% L-WRN conditioned media (ATCC, cat. CRL-3276), 1.25 mM N-Acetyl-L-cysteine (Sigma-Aldrich, cat. A9165), 10 mM nicotinamide (Sigma-Aldrich, cat. N0636), 1X B-27 supplement (Thermo Fisher Scientific, cat. 17504044), 1X N-2 supplement (Thermo Fisher Scientific, cat. 17502048), 50 ng/mL human EGF (Thermo Fisher Scientific, cat. PHG0311), and 10 microM Y-27632 dihydrochloride (Tocris Bioscience, cat. 1254). The K12877-001-R-J1-PDC line was cultured in 6I media, which includes all 6C/Colon 1B media plus 10 ng/mL human FGF-10 (PeproTech, cat. 100-26), 1 ng/mL human FGF-2 (PeproTech, cat. 100-18B), 1 µM prostaglandin E2 (Tocris Bioscience, cat. 2296), […] hydrocortisone (Sigma-Aldrich, cat. H4001), and […] bovine insulin (Sigma-Aldrich, cat. I6634). The K86415-001-R-J1-PDC line was cultured in 6D media, which includes all 6C/Colon 1B media components minus the L-WRN conditioned media. The 485176-168-R4-J1-PDC was cultured in PANC media, which includes all 6C/Colon 1B media plus 100 ng/mL human FGF-10 (PeproTech, cat. 100-26), 500 nM SB-431542 (Selleckchem, cat. S1067), and 10 nM gastrin (Tocris Bioscience, cat. 3006). […]
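Further: spheroids exposed to agents for one week before readout.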
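Wherever viability, T/C is given: percent viability relative to DMSO vehicle control wells as 100%.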

Take `NC1c2ccccc2OC12CCN(c1cnc3c(N4CCCc5ncccc54)n[nH]c3n1)CC2` (centres undefined) + CCn1c(-c2cc(N3CCN(C)CC3)cnc2C(C)OC)c2c3cc(ccc31)-c1csc(n1)CC(NC(=O)C1CC1C)C(=O)N1CCCC(N1)C(=O)OCC(C)(C)C2: the IC50 (as a rule, the concentration at which inhibition is half-maximal) by setting is: (curve of first compound, second compound 0.000949 µM) greater than 10 µM; (curve of first compound, second compound 0.003 µM) greater than 10 µM; (curve of first compound, second compound 0.00949 µM) greater than 10 µM; (curve of first compound, second compound 0.03 µM) greater than 10 µM; (curve of first compound, second compound 0.0949 µM) greater than 10 µM; (curve of first compound, second compound 0.3 µM) greater than 10 µM. Further, the viability, T/C (usually the result in the treated group divided by that in the control group, in per cent) is 88.7% (second compound 0.000949 µM, first compound 0.0316 µM); 84% (second compound 0.000949 µM, first compound 0.1 µM); 117% (second compound 0.000949 µM, first compound 0.316 µM); 104% (second compound 0.000949 µM, first compound 1 µM); 123% (second compound 0.000949 µM, first compound 3.16 µM); 85% (second compound 0.000949 µM, first compound 10 µM). In addition, the viability, T/C is 121% (second compound 0.003 µM, first compound 0.0316 µM); 93% (second compound 0.003 µM, first compound 0.1 µM); 88.9% (second compound 0.003 µM, first compound 0.316 µM); 95.2% (second compound 0.003 µM, first compound 1 µM); 105% (second compound 0.003 µM, first compound 3.16 µM); 109% (second compound 0.003 µM, first compound 10 µM). Besides, the viability, T/C (second compound 0.00949 µM, first compound 0.0316 µM) was 106%; the viability, T/C (second compound 0.00949 µM, first compound 0.1 µM) was 103%; the viability, T/C (second compound 0.00949 µM, first compound 0.316 µM) is 88.5%; the viability, T/C (second compound 0.00949 µM, first compound 1 µM) was 111%; the viability, T/C (second compound 0.00949 µM, first compound 3.16 µM) was 97.1%; the viability, T/C (second compound 0.00949 µM, first compound 10 µM) is 89.9%. The viability, T/C runs as follows: (second compound 0.03 µM, first compound 0.0316 µM) 78.9%; (second compound 0.03 µM, first compound 0.1 µM) 88.8%; (second compound 0.03 µM, first compound 0.316 µM) 103%; (second compound 0.03 µM, first compound 1 µM) 105%; (second compound 0.03 µM, first compound 3.16 µM) 119%; (second compound 0.03 µM, first compound 10 µM) 69.7%. The viability, T/C by setting is: (second compound 0.0949 µM, first compound 0.0316 µM) 103%; (second compound 0.0949 µM, first compound 0.1 µM) 122%; (second compound 0.0949 µM, first compound 0.316 µM) 105%; (second compound 0.0949 µM, first compound 1 µM) 117%; (second compound 0.0949 µM, first compound 3.16 µM) 92.8%; (second compound 0.0949 µM, first compound 10 µM) 88.4%. Moreover, the viability, T/C was 103% (second compound 0.3 µM, first compound 0.0316 µM); 88.1% (second compound 0.3 µM, first compound 0.1 µM); 96.8% (second compound 0.3 µM, first compound 0.316 µM); 97.3% (second compound 0.3 µM, first compound 1 µM); 91.2% (second compound 0.3 µM, first compound 3.16 µM); 137% (second compound 0.3 µM, first compound 10 µM).
For `C=CC(=O)N1CCN(c2nc(OCC3CCCN3C)nc3c(F)c(-c4nc(N)cc(C)c4C(F)(F)F)c(Cl)cc23)C(C)C1` (centres undefined), the IC50 was greater than 1 µM (compound alone, run of 06/10/2024) and greater than 1 µM (curve of compound).

The values above are taken from PubChem BioAssay AID2060897 (Molecular Pharmacology Branch, DTP, NCI, 2025).
